Where two headings read alike, the source gives them in different places. Where a SMILES comes first, the peptide text is derived from it. Where no end group is shown, it is not given here.
Assays:
[1] = biological target: recombinant alpha-glucosidase from Saccharomyces cerevisiae, which is a maltase (Saccharomyces cerevisiae, UniProt P53341); assay: biochemical; conditions: for median inhibitory concentration of alpha-glucosidase (maltase), times lower relative to the reference inhibitors: relative to acarbose and miglitol; for inhibition of alpha-glucosidase in words: relative to the AP and VAP peptides
Description: The synthetic peptides were supplied by GENOSPHERE Biotechnologies.
The alpha-glucosidase used is the recombinant alpha-glucosidase from Saccharomyces cerevisiae, which is a maltase.
The samples were solubilized beforehand in deionized water containing 10% of DMSO (dimethyl sulphoxide).
After incubation at 37° C. for 20 minutes, 20 μL of the substrate p-NPG (p-nitrophenyl glucopyranoside) at 2.5 mM (prepared in the same buffer as mentioned above) was added to the mixture in order to start the reaction.
The reaction medium was incubated for 30 minutes at 37° C. and then the reaction was stopped by adding 80 μL of a solution of sodium carbonate (Na2CO3) at 0.3M.
The quantity of product formed (p-nitrophenyl (p-NP) of yellow colour) was measured by spectrophotometry (absorbance at 410 nm, VersaMax™, Microplate Reader).
The test was carried out in a 96-well microplate.
All the inhibition tests were carried out in triplicate.
The percentage inhibition was calculated from the following equation: […]
OD sample assay corresponds to the optical density obtained for the mixture “sample+enzyme+substrate”.
OD assay blank corresponds to the optical density obtained for the mixture “sample+buffer”.
OD control assay corresponds to the optical density obtained for the mixture “buffer+enzyme+substrate”.
OD control blank corresponds to the optical density obtained for the buffer.

[2] = biological target: T1, recombinant alpha-glucosidase from S. cerevisiae (maltase) (Saccharomyces cerevisiae, UniProt P53341); assay: biochemical; assay type: biochemical; conditions: for IC50: Table 2; for inhibition of α-glucosidase in words: relative to acarbose, miglitol and voglibose
T1 construct: purchased Sigma G0660-750UN
Description: 20 μl of α-glucosidase in 0.1M potassium phosphate buffer (pH 6.8) at 1.6 U/ml is mixed with 8 μl of the peptide sample or of the reference inhibitor at different concentrations.
The samples are solubilized beforehand in milliQ water containing 10% DMSO (available from Sigma under reference 472301).
After preincubation at 37° C. for 15 min, 20 μl of the substrate p-NPG at 20 mM in 0.1M potassium phosphate buffer (pH 6.8) is added to the mixture in order to start the reaction.
The reaction medium is incubated for 30 min at 37° C. and then the reaction is stopped by adding 80 μl of a 1M solution of sodium carbonate (Na2CO3).
The quantity of product formed (p-nitrophenyl) is measured by reading the absorbance at 410 nm using the Fluostar Omega spectrophotometer (BMG Labtech, Germany).
(§1) All the inhibition tests are carried out in triplicate.
The enzyme used is recombinant alpha-glucosidase from S. cerevisiae (it is a maltase available from Sigma, under reference G0660-750UN).
The substrate used is 4-nitrophenyl α-D-glucopyranoside (p-NPG) (available from Sigma under reference N1377).

[3] = test system: α-glucosidase; assay: In-vitro determination of the type of inhibition (Lineweaver-Burk, hydrolysis of p-NPG); assay type: biochemical; conditions: straight lines intersect at 1/Vmax
Description: The three straight lines are as follows: • Filled circle: […] • Empty circle: test in the presence of 50 μM of AP • Filled triangle: test in the presence of 100 μM of AP
Based on the initial rates, the Lineweaver-Burk representations for each concentration of inhibitor LKP were shown and the type of inhibition was determined. The synthetic LKP peptide was supplied by GENOSPHERE Biotechnologies.
Based on the initial rates, the Lineweaver-Burk representations for each concentration of inhibitor AP were shown and the type of inhibition was determined.

[4] = test system: db/db mice; assay: Oral test of tolerance to maltose in vivo in db/db mice (Example 5); conditions: maltose 2 g/kg; for effect on the glycaemia of the mice during the test of tolerance to maltose: alone or in combination
Description: The inhibitory activity of the AP and VAP peptides and the effect of the AP and VAP peptides on the glycaemic response can be measured in an oral test of tolerance to maltose in vivo in db/db mice that have a glucose intolerance of genetic origin. The mice are 4 weeks of age and each mouse is its own control. A dose of maltose (2 g/kg) was used in order to cause a temporary increase in glycaemia. Four (4) oral tests of tolerance to maltose (2 g/kg) were carried out on each mouse with a minimum interval of 48 h. The order was determined so as to cancel a potentially confounding effect of a change in body composition of the mice during the 3 study weeks. […] The maltose and the test products were administered directly by the oral route (gastric gavage), diluted in 0.9% saline solution. […] • Main Criterion: […] […] The secondary criteria for evaluation were: […] The AUC (area under the curve) was estimated by the trapezium method.

[5] = biological target: T2, DPP-IV from pig kidney (Sus scrofa, UniProt P22411); assay: In-vitro determination of the inhibition of DPP-IV by synthetic peptides (Example 14); assay type: biochemical; conditions: for IC50 / inhibitory activity of DPP-IV (IC50) in mmol/l: Table 13, substrate Gly-L-Pro-p-nitroanilide, pH 8.0, 37° C.; for IC50: read-out: inhibitory activity of DPP-IV (IC50); for inhibition of DPP-IV in words: relative to the reference Diprotin A
T2 construct: The enzyme used is DPP-IV from pig kidney; purchased Sigma D7052; host or cells: pig kidney
Description: The inhibitory activity of synthetic peptides can be measured in vitro according to the following protocol:
25 μl of the substrate Gly-L-Pro-p-nitroanilide in 0.1 M Tris-HCL buffer (pH 8.0) at 1.6 mM is mixed with 25 μl of the peptide sample or of reference inhibitor at different concentrations. The samples are solubilized beforehand in Tris HCL buffer (pH8.0).
After preincubation at 37° C. for 10 min, 50 μl of the DPP-IV enzyme at a concentration of 0.01 U/ml in 0.1 M Tris-HCL buffer (pH 8.0) is added to the mixture in order to start the reaction. The reaction medium is incubated for 60 min at 37° C. and then the reaction is stopped by adding 100 μl of 1M sodium acetate buffer (pH4).
The quantity of product formed (p-nitroanilide) is measured by reading the absorbance at 385 nm using the Fluostar Omega spectrophotometer (BMG Labtech, Germany).
as §1
The substrate used is Gly-L-Pro-p-nitroanilide hydrochloride (available from Sigma under reference G0513).
The enzyme used is DPP-IV from pig kidney (available from Sigma under reference D7052).
The reference inhibitor is Diprotin A, corresponding to the Ile-Pro-Ile tripeptide (available from Sigma under reference 19759).

[6] = biological target: saccharase (Homo sapiens, UniProt P14410); conditions: in particular saccharase; cited from earlier work
[7] = Inhibitory activity on α-glucosidase (IC50) in mg/ml
[8] = Table 1, enzyme 0.2 U/mL, p-NPG 2.5 mM, pH 6.8, 37° C., read-out: Inhibitory activity on α-glucosidase (IC50)
[9] = enzyme 1.6 U/ml, p-NPG 20 mM, pH 6.8, 37° C., read-out: Inhibitory activity on α-glucosidase (IC50)
[10] = read-out: Inhibitory activity on α-glucosidase (IC50) in mg/ml (converted)
[11] = Inhibitory activity on α-glucosidase (IC50) in mmol/l, enzyme 1.6 U/ml, p-NPG 20 mM, pH 6.8, 37° C.
[12] = Table 1, enzyme 0.2 U/mL, p-NPG 2.5 mM, pH 6.8, 37° C.

T2 sequence (P22411 whole entry): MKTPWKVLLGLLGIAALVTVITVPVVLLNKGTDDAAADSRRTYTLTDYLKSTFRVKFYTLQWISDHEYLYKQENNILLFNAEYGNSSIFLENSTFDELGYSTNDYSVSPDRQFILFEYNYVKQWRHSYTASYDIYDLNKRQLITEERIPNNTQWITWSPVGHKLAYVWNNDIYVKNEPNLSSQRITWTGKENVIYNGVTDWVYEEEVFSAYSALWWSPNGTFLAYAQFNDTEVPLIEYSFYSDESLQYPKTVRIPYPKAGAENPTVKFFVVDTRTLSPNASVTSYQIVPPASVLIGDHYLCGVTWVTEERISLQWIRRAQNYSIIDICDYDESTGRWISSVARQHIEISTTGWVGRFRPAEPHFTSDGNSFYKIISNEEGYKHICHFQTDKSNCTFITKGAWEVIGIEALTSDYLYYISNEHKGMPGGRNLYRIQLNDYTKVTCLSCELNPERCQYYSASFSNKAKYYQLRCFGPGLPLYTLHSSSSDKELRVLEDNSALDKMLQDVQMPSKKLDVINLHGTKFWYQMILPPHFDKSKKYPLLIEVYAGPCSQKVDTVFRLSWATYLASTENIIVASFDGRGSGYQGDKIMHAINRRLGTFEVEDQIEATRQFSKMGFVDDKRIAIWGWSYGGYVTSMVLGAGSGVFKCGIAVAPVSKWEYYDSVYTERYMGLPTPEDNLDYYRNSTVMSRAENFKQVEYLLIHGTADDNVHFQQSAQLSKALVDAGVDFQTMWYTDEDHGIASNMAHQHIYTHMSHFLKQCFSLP
recombinant alpha-glucosidase from Saccharomyces cerevisiae, which is a maltase, sequence (P53341 whole entry): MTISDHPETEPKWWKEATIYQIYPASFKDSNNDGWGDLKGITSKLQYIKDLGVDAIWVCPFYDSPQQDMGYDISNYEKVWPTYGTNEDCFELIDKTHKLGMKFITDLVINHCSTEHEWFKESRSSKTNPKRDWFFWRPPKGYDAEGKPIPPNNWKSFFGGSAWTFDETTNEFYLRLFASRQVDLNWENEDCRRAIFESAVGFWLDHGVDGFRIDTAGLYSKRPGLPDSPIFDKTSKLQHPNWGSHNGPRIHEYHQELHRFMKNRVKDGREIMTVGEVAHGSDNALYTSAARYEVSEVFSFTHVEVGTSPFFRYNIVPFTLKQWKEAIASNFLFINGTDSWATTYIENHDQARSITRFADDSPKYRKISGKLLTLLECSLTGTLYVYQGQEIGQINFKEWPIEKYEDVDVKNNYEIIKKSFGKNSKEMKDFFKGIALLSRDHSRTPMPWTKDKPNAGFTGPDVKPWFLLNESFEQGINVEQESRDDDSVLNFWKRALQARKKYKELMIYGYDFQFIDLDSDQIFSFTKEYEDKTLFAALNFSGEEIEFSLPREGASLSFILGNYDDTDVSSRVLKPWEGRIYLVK
T1 sequence (P53341 whole entry): as above
saccharase, sequence (P14410 whole entry): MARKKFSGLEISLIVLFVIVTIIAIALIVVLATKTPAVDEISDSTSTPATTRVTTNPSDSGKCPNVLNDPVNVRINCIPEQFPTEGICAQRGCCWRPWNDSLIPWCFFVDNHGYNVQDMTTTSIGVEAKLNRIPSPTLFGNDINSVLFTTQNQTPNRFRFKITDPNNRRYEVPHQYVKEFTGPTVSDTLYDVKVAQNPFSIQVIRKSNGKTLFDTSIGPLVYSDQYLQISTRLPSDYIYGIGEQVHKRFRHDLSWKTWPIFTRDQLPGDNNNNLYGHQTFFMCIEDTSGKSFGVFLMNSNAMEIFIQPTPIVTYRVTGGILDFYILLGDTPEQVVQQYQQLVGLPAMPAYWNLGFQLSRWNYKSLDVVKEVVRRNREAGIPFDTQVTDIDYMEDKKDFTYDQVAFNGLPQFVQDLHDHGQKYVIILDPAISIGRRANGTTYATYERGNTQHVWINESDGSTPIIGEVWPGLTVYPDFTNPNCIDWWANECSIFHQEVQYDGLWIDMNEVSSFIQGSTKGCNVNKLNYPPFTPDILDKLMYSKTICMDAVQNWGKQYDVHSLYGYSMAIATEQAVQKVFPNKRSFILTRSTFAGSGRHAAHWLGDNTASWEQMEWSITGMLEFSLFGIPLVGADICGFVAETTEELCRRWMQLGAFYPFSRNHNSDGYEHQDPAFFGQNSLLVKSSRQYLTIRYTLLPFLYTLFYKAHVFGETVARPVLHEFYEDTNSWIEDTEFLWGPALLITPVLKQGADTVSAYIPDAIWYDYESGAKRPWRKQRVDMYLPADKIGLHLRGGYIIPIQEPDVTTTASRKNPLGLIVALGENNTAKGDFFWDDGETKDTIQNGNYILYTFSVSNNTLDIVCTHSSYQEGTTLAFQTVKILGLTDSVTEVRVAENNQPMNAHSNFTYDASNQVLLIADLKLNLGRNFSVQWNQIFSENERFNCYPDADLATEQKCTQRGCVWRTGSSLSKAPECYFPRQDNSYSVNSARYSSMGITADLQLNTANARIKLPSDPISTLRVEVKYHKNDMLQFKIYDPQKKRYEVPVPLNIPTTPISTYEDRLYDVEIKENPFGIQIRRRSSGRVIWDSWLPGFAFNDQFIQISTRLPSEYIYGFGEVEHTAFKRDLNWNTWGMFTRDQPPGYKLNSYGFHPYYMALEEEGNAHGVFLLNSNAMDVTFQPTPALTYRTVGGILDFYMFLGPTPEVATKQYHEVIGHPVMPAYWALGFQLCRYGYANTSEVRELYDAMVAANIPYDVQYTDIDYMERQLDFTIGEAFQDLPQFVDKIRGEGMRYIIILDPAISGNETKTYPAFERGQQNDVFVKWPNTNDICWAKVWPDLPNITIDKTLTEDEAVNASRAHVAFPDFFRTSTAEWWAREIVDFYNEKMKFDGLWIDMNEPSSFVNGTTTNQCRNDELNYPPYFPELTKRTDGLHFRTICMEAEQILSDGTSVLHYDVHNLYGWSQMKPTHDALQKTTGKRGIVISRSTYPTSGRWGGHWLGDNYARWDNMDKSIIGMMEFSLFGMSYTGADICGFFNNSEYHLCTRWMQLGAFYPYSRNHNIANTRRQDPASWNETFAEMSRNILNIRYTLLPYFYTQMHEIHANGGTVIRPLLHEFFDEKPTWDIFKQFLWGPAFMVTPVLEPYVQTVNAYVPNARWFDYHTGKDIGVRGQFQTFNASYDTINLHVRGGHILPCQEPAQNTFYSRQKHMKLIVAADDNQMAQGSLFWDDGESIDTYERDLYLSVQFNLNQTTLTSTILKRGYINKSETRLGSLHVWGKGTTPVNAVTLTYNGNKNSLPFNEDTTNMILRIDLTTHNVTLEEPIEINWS

C[C@H](N)C(=O)N1CCC[C@H]1C(=O)O [AP] (H-Ala-Pro-OH; N-terminus and C-terminus assumed)
IC50 ([1]; IC50 on α-glucosidase): 0.0136 ± 0.00092 mM
median inhibitory concentration of alpha-glucosidase (maltase), times lower relative to the reference inhibitors [1]: approximately 900 times
IC50 [2, 7]: 0.0134 mM
inhibition of α-glucosidase in words [2]: strongly inhibit
type of inhibition of the degradation of p-NPG [3]: competitive
maximum glycaemia value subtracted from the resting value (ΔCmax glycaemia) ([4]; 500 mg/kg by gastric gavage, resting value 150 mg/dl): approximately 280 mg/dl
effect on the glycaemia of the mice during the test of tolerance to maltose ([4]; 500 mg/kg): lower the glycaemia
effect of treatment on the maximum glycaemia value ([4]; 500 mg/kg): significant effect
effect on the glucose AUC during the oral test of tolerance to maltose ([4]; 500 mg/kg, 0-120 minutes): beneficial effect
IC50 [5]: 4.78 ± 0.284 mM
inhibition of DPP-IV in words [5]: very weakly

CC(C)C[C@H](NC(=O)[C@@H]1CCCN1C(=O)CN)C(=O)O [GPL] (H-Gly-Pro-Leu-OH; N-terminus and C-terminus assumed)
IC50 [1, 8]: 4.82 ± 0.15 mM
inhibition of alpha-glucosidase in words [1]: weak inhibitors
IC50 [2, 9]: 4.82 ± 0.15 mM
IC50 [2, 10]: 4.81 mM
IC50 [5]: 1.85 ± 0.298 mM

CC[C@H](C)[C@H](N)C(=O)N[C@@H](Cc1ccc(O)cc1)C(=O)O [IY] (H-Ile-Tyr-OH; N-terminus and C-terminus assumed)
IC50 [1, 8]: 12.3 mM
inhibition of alpha-glucosidase in words [1]: weak inhibitors
IC50 [2, 9]: 12.3 ± 0.25 mM
IC50 [2, 10]: 12.2 mM

NCCCC[C@H](N)C(=O)N[C@@H](Cc1c[nH]c2ccccc12)C(=O)O [KW] (H-Lys-Trp-OH; N-terminus and C-terminus assumed)
IC50 [1, 8]: 12.8 ± 0.98 mM
inhibition of alpha-glucosidase in words [1]: weak inhibitors
IC50 [2, 9]: 12.8 ± 0.98 mM
IC50 [2, 10]: 12.7 mM

NCCCC[C@H](N)C(=O)N[C@@H](Cc1ccc(O)cc1)C(=O)O [KY]
IC50 [1, 8]: 10.96 ± 0.1 mM
inhibition of alpha-glucosidase in words [1]: weak inhibitors
IC50 [2, 9]: 10.96 ± 0.1 mM
IC50 [2, 10]: 10.9 mM
inhibitory activity of DPP-IV (IC50) in mmol/l [5]: No inhibition

CC(C)C[C@H](N)C(=O)N[C@@H](CCCCN)C(=O)N1CCC[C@H]1C(=O)O [LKP] (H-Leu-Lys-Pro-OH; N-terminus and C-terminus assumed)
IC50 ([1]; Inhibitory activity on α-glucosidase (IC50) in mM, Table 1, enzyme 0.2 U/mL, p-NPG 2.5 mM, pH 6.8, 37° C.): 7.11 ± 0.2 mM
inhibition of alpha-glucosidase in words [1]: weak inhibitors
IC50 [2, 7]: 7.1 mM
IC50 [2, 11]: 7.11 ± 0.2 mM
type of inhibition of the degradation of p-NPG [3]: competitive

OCCN1C[C@H](O)[C@@H](O)[C@H](O)[C@H]1CO [Miglitol, miglitol, reference compound]
IC50 [1, 8]: 39 ± 0.96 mM
IC50 [2, 7]: 37.5 mM
IC50 [2, 11]: 37.5 ± 0.69 mM
mode of inhibition of alpha-glucosidase [6]: competitively and reversibly

CC(C)[C@H](N)C(=O)N[C@@H](C)C(=O)N1CCC[C@H]1C(=O)NCC(=O)O [VAPG] (H-VAPG-OH; N-terminus and C-terminus assumed)
IC50 [2, 7]: 4.05 mM
IC50 [5]: 2.27 ± 0.131 mM

CC(C)[C@H](N)C(=O)N[C@@H](C)C(=O)N1CCC[C@H]1C(=O)O [VAP] (H-Val-Ala-Pro-OH; N-terminus and C-terminus assumed)
IC50 ([1]; read-out: IC50 on α-glucosidase): 0.02 ± 0.00021 mM
median inhibitory concentration of alpha-glucosidase (maltase), times lower relative to the reference inhibitors [1]: approximately 600 times
IC50 [2, 10]: 0.02 mM
inhibition of α-glucosidase in words [2]: strongly inhibit
effect on the glycaemia of the mice during the test of tolerance to maltose ([4]; 500 mg/kg): lower the glycaemia
IC50 [5]: 4.82 ± 2.3 mM
inhibition of DPP-IV in words [5]: very weakly

CC(C)[C@H](N)C(=O)N[C@@H](Cc1ccc(O)cc1)C(=O)O [VY] (H-Val-Tyr-OH; N-terminus and C-terminus assumed)
inhibition of alpha-glucosidase in words [1]: weak inhibitors
IC50 [2, 10]: 2.7 mM
inhibitory activity of DPP-IV (IC50) in mmol/l [5]: No inhibition

AKK: synthetic peptide of sequence AKK
Inhibitory activity on α-glucosidase (IC50) in mM [1, 12]: No inhibition

AVIPIPT
inhibitory activity of DPP-IV (IC50) in mmol/l [5]: No inhibition

AVPYQR [AVPYQR]
IC50 [2, 7]: 3.19 mM
IC50 [5]: 5.7 ± 0.08 mM

SAPLRVY [SAPLRVY]
IC50 [2, 7]: 1.76 mM
IC50 [2, 11]: 1.76 ± 0.18 mM
IC50 [5]: 1.06 ± 0.031 mM

VAPFPEV [VAPFPEV]
IC50 [2, 7]: 2.68 mM
IC50 [5]: 1.184 ± 0.008 mM

VGVAPG [VGVAPG]
IC50 [2, 7]: 4.58 mM
IC50 [2, 11]: 4.59 ± 0.06 mM
IC50 [5]: 10.7 ± 0.769 mM

VIY: peptide sequence VIY of Table 1
Inhibitory activity on α-glucosidase (IC50) in mM [1, 12]: No inhibition
